Where “and” joins values, the source holds several entries; their conditions need not be identical. Identical values can stand only once. Like-named read-outs stand apart in the source and are kept apart here.
Target: LFG2:4B10 mAb

| Substance | Kd | Response R | binding response | Kd (read-out: dissociation (KD)) | improvement in binding response versus native epitope THQDEIYEQK-biotin |
| --- | --- | --- | --- | --- | --- |
| THKDEIGGGSK-biotin | 60 nM | 2.3704 |  |  |  |
| TFKDEAGGGSK-biotin | 16.4 nM | 5.2909 |  |  |  |
| AFKDEIGGGSK-biotin | 28.7 nM and 35.1 nM | 0.556 and 0.5352 |  |  |  |
| TFADEIGGGSK-biotin | 25.2 nM and 23.9 nM | 0.4475 and 0.4596 |  |  |  |
| TAKDEIGGGSK-biotin | 31.5 nM and 20.9 nM | 3.7854 and 3.7743 |  |  |  |
| THQDEIYEQK-biotin | 53.1 nM | 0.7024 | 0.7 nm | 53 nM |  |
| TFKDEIGGGSK-biotin | 9.97 nM | 4.8387 | 4.83 nm | 13.9 nM | ~7 fold |
| TFKAEIGGGSK-biotin |  | 0.2612 and 0.2492 |  |  |  |
| TFKDAIGGGSK-biotin | 24.5 nM | 1.0132 |  |  |  |
| TFQDEIGGGSK-biotin | 34.4 nM | 1.3414 |  |  |  |

Reference: US9845349B2 (priority 2012, dated 2017)
